Experimental data as given in the NIST ThermoML archive (doi:10.1021/je200721d).
Numbers after ± are expanded uncertainties.

Experiment: xn = mol fraction of the nth substance listed
Conditions: Liquid, Vibrating tube method

CCCCCCCCCC [decane] + CCCCCC
Conditions | mass density [kg/m3]
342.8 K, 1000 kPa, x2 = 0.8991 | 626.74 ± 0.28
342.8 K, 2000 kPa, x2 = 0.8991 | 628.11 ± 0.29
342.8 K, 3000 kPa, x2 = 0.8991 | 629.48 ± 0.3
342.8 K, 4000 kPa, x2 = 0.8991 | 630.85 ± 0.31
342.8 K, 5000 kPa, x2 = 0.8991 | 632.19 ± 0.32
342.8 K, 6000 kPa, x2 = 0.8991 | 633.52 ± 0.32
342.8 K, 7000 kPa, x2 = 0.8991 | 634.85 ± 0.33
342.8 K, 8000 kPa, x2 = 0.8991 | 636.16 ± 0.34
342.8 K, 9000 kPa, x2 = 0.8991 | 637.46 ± 0.35
342.8 K, 10000 kPa, x2 = 0.8991 | 638.73 ± 0.36
342.8 K, 11000 kPa, x2 = 0.8991 | 639.99 ± 0.37
342.8 K, 12000 kPa, x2 = 0.8991 | 641.23 ± 0.38
342.8 K, 13000 kPa, x2 = 0.8991 | 642.43 ± 0.39
342.8 K, 14000 kPa, x2 = 0.8991 | 643.64 ± 0.4
342.8 K, 15000 kPa, x2 = 0.8991 | 644.8 ± 0.41
342.8 K, 16000 kPa, x2 = 0.8991 | 645.95 ± 0.42
342.8 K, 17000 kPa, x2 = 0.8991 | 647.07 ± 0.43
342.8 K, 18000 kPa, x2 = 0.8991 | 648.18 ± 0.44
342.8 K, 19000 kPa, x2 = 0.8991 | 649.24 ± 0.45
342.8 K, 20000 kPa, x2 = 0.8991 | 650.3 ± 0.46
342.8 K, 21000 kPa, x2 = 0.8991 | 651.32 ± 0.47
342.8 K, 22000 kPa, x2 = 0.8991 | 652.31 ± 0.48
342.8 K, 23000 kPa, x2 = 0.8991 | 653.28 ± 0.49
342.8 K, 24000 kPa, x2 = 0.8991 | 654.23 ± 0.51
342.8 K, 25000 kPa, x2 = 0.8991 | 655.16 ± 0.52
343.05 K, 1000 kPa, x2 = 0.0456 | 690.21 ± 0.26
343.05 K, 2000 kPa, x2 = 0.0456 | 691.25 ± 0.26
343.05 K, 3000 kPa, x2 = 0.0456 | 692.26 ± 0.27
343.05 K, 4000 kPa, x2 = 0.0456 | 693.3 ± 0.28
343.05 K, 5000 kPa, x2 = 0.0456 | 694.32 ± 0.28
343.05 K, 6000 kPa, x2 = 0.0456 | 695.32 ± 0.29
343.05 K, 7000 kPa, x2 = 0.0456 | 696.31 ± 0.3
343.05 K, 8000 kPa, x2 = 0.0456 | 697.29 ± 0.31
343.05 K, 9000 kPa, x2 = 0.0456 | 698.26 ± 0.31
343.05 K, 10000 kPa, x2 = 0.0456 | 699.22 ± 0.32
343.05 K, 11000 kPa, x2 = 0.0456 | 700.16 ± 0.33
343.05 K, 12000 kPa, x2 = 0.0456 | 701.08 ± 0.34
343.05 K, 13000 kPa, x2 = 0.0456 | 702 ± 0.34
343.05 K, 14000 kPa, x2 = 0.0456 | 702.89 ± 0.35
343.05 K, 15000 kPa, x2 = 0.0456 | 703.77 ± 0.36
343.05 K, 16000 kPa, x2 = 0.0456 | 704.64 ± 0.37
343.05 K, 17000 kPa, x2 = 0.0456 | 705.5 ± 0.38
343.05 K, 18000 kPa, x2 = 0.0456 | 706.36 ± 0.38
343.05 K, 19000 kPa, x2 = 0.0456 | 707.2 ± 0.39
343.05 K, 20000 kPa, x2 = 0.0456 | 708.02 ± 0.4
343.05 K, 21000 kPa, x2 = 0.0456 | 708.84 ± 0.41
343.05 K, 22000 kPa, x2 = 0.0456 | 709.65 ± 0.42
343.05 K, 23000 kPa, x2 = 0.0456 | 710.45 ± 0.43
343.05 K, 24000 kPa, x2 = 0.0456 | 711.25 ± 0.43
343.05 K, 25000 kPa, x2 = 0.0456 | 712.03 ± 0.44
343.06 K, 1000 kPa, x2 = 0.2185 | 681.09 ± 0.26
343.06 K, 1000 kPa, x2 = 0.7524 | 641.66 ± 0.28
343.06 K, 2000 kPa, x2 = 0.2185 | 682.19 ± 0.27
343.06 K, 2000 kPa, x2 = 0.7524 | 643.07 ± 0.28
343.06 K, 3000 kPa, x2 = 0.2185 | 683.33 ± 0.27
343.06 K, 3000 kPa, x2 = 0.7524 | 644.43 ± 0.29
343.06 K, 4000 kPa, x2 = 0.2185 | 684.4 ± 0.28
343.06 K, 4000 kPa, x2 = 0.7524 | 645.8 ± 0.3
343.06 K, 5000 kPa, x2 = 0.2185 | 685.47 ± 0.29
343.06 K, 5000 kPa, x2 = 0.7524 | 647.1 ± 0.31
343.06 K, 6000 kPa, x2 = 0.2185 | 686.52 ± 0.3
343.06 K, 6000 kPa, x2 = 0.7524 | 648.4 ± 0.32
343.06 K, 7000 kPa, x2 = 0.2185 | 687.54 ± 0.3
343.06 K, 7000 kPa, x2 = 0.7524 | 649.65 ± 0.33
343.06 K, 8000 kPa, x2 = 0.2185 | 688.57 ± 0.31
343.06 K, 8000 kPa, x2 = 0.7524 | 650.88 ± 0.34
343.06 K, 9000 kPa, x2 = 0.2185 | 689.57 ± 0.32
343.06 K, 9000 kPa, x2 = 0.7524 | 652.12 ± 0.34
343.06 K, 10000 kPa, x2 = 0.2185 | 690.55 ± 0.33
343.06 K, 10000 kPa, x2 = 0.7524 | 653.31 ± 0.35
343.06 K, 11000 kPa, x2 = 0.2185 | 691.53 ± 0.34
343.06 K, 11000 kPa, x2 = 0.7524 | 654.46 ± 0.36
343.06 K, 12000 kPa, x2 = 0.2185 | 692.48 ± 0.34
343.06 K, 12000 kPa, x2 = 0.7524 | 655.59 ± 0.37
343.06 K, 13000 kPa, x2 = 0.2185 | 693.45 ± 0.35
343.06 K, 13000 kPa, x2 = 0.7524 | 656.72 ± 0.38
343.06 K, 14000 kPa, x2 = 0.2185 | 694.36 ± 0.36
343.06 K, 14000 kPa, x2 = 0.7524 | 657.81 ± 0.39
343.06 K, 15000 kPa, x2 = 0.2185 | 695.27 ± 0.37
343.06 K, 15000 kPa, x2 = 0.7524 | 658.89 ± 0.4
343.06 K, 16000 kPa, x2 = 0.2185 | 696.19 ± 0.38
343.06 K, 16000 kPa, x2 = 0.7524 | 659.96 ± 0.41
343.06 K, 17000 kPa, x2 = 0.2185 | 697.07 ± 0.39
343.06 K, 17000 kPa, x2 = 0.7524 | 661 ± 0.42
343.06 K, 18000 kPa, x2 = 0.2185 | 697.94 ± 0.39
343.06 K, 18000 kPa, x2 = 0.7524 | 662.03 ± 0.43
343.06 K, 19000 kPa, x2 = 0.2185 | 698.83 ± 0.4
343.06 K, 19000 kPa, x2 = 0.7524 | 663.03 ± 0.44
343.06 K, 20000 kPa, x2 = 0.2185 | 699.68 ± 0.41
343.06 K, 20000 kPa, x2 = 0.7524 | 664.01 ± 0.45
343.06 K, 21000 kPa, x2 = 0.2185 | 700.53 ± 0.42
343.06 K, 21000 kPa, x2 = 0.7524 | 664.97 ± 0.46
343.06 K, 22000 kPa, x2 = 0.2185 | 701.36 ± 0.43
